Measurements published in patent publication US20110028715A1, “NOVEL ADENINE COMPOUND” (priority 2007, published 2011).

Assays:
[1] = test system: IFN-α; assay: IFN-α production inducing activity in mice (plasma IFN-α by L929/2-5AS-Luc bioassay); type: in vivo, B6C3F1 mice; conditions: 3 hours after 1 mg/kg intravenously via tail vein, mean ± standard deviation (n = 3)
Method: A test compound was administered to B6C3F1 mice (Charles River Japan, Inc.) via tail vein at the dose of 1 mg/kg intravenously. After 3 hours, total blood was collected into a sample tube containing heparin. Plasma was prepared from total blood after centrifugation (3,000 rpm, 10 min, at room temperature) and stored at −20° C.
Murine fibroblasts (L929/2-5AS-Luc), which constitutively expressed luciferase gene in which the promoter region for 2′-5′-oligoadenylate synthase was cloned, was seeded into 96-well plate at 4×10^4 cells/well, and cultured for overnight with diluted plasma or mouse IFN-α. After Luclite (Perkin Elmer) was added to the plate, the luciferase activity was measured with TopCount (Perkin Elmer).
The concentration of IFN-α in plasma was calculated by linear regression of logarithmic transformed concentration of mouse IFN-α and the luciferase activity.

[2] = test system: OV-HM ovarian carcinoma; assay: Antitumor activity: lung metastasis in OV-HM ovarian carcinoma-bearing mouse; type: in vivo, B6C3F1 mouse; conditions: Day 35
Method: OV-HM ovarian carcinoma-bearing B6C3F1 mouse was prepared by intradermally inoculating 1×10^6 viable OV-HM cells in back skin. Tumor was surgically removed ten days after the tumor incubation under isoflurane anesthesia. On Day 11, Day 14, Day 17, Day 20, Day 24, Day 28, and Day 32, a test compound was administered via tail vein at the dose of 1 mg/kg. On Day 35, mouse was euthanized, and lung was collected from the mouse. Metastasized tumor nodules in lung was counted, and the frequency of the metastasized mice was calculated in each group.

CCOc1nc(N)c2[nH]c(=O)n(Cc3ccc(CN(C)C)cc3)c2n1 [Example 63, 6-Amino-9-(4-dimethylaminomethylbenzyl)-2-ethoxy-7,9-dihydropurin-8-one]
Mouse IFN-α [1]: 25.4 ± 13.9 IU/mL | Frequency of metastasis ([2]; metastasized mice per group, lung, 1 mg/kg via tail vein on Days 11, 14, 17, 20, 24, 28, 32): 0/6 | Number of tumor ([2]; metastasized tumor nodules in lung, 1 mg/kg via tail vein, **p < 0.01 vs vehicle group (Wilcoxon)): 0.0**
